For the experiment, the system named is Bcl-2. The experiment in a line: Bcl-2 inhibition assay. In kind it is cell-based, human. The note with it: PC-3 cell line; for down-regulation of anti-apoptotic Bcl-2 protein levels: compared to staurosporine. Here is the method: For more details, see Supplementary Materials. […]
4.2.6. Bcl-2 inhibition assay
Mix all reagents thoroughly without foaming before use. Wash the microwells twice with approximately 300 μL Wash Buffer per well with thorough aspiration of microwell contents between washes. Take caution not to scratch the surface of the microwells.
After the last wash, empty the wells and tap microwell strips on absorbent pad or paper towel to remove excess Wash Buffer. Use the microwell strips immediately after washing or place upside down on a wet absorbent paper for not longer than 15 minutes.
Add 100 μL of Sample Diluent in duplicate to all standard wells and to the blank wells. Prepare standard (1:2 dilution) in duplicate ranging from 32 ng/mL to 0.5 ng/mL. Add 100 μL of Sample Diluent, in duplicate, to the blank wells.
Add 80 μL of Sample Diluent, in duplicate, to the sample wells. Add 20 μL of each Sample, in duplicate, to the designated wells. Add 50 μL of diluted biotin-conjugate to all wells, including the blank wells. Cover with a plate cover and incubate at room temperature, on a microplate shaker at 100 rpm if available, for 2 hours. Remove plate cover and empty the wells. Wash microwell strips 3 times as described in step 2. Add 100 μL of diluted Streptavidin-HRP to all wells, including the blank wells. Cover with a plate cover and incubate at room temperature, on a microplate shaker at 100 rpm if available, for 1 hour. Remove plate cover and empty the wells. Wash microwell strips […]
3 times as described in step 2. Proceed to the next step. Pipette 100 μl of mixed TMB Substrate Solution to all wells, including the blanks. Incubate the microwell strips at room temperature (18° to 25°C) for about 15 minutes, if available on a rotator set at 100 rpm. Avoid direct exposure to intense light. The point, at which the substrate reaction is stopped, is often determined by the ELISA reader. Many ELISA readers record absorbance only up to 2.0 O.D. Therefore, the color development within individual microwells must be watched by the person running the assay and the substrate reaction stopped before positive wells are no longer properly detectable. Stop the enzyme reaction by quickly pipetting 100 μL of Stop Solution into each well, including the blank wells. It is important that the Stop Solution is spread quickly and uniformly throughout the microwells to completely inactivate the enzyme. Results must be read immediately after the Stop Solution is added or within one hour if the microwell strips are stored at 2 - 8°C in the dark. Read absorbance of each microwell on a spectrophotometer using 450 nm as the primary wavelength.
4.3. Statistical analysis
Computerized Prism 5 program was used to statistically analyzed data using one-way ANOVA test followed by Tukey’s as post ANOVA for multiple comparison at P ≤.05.
Data were presented as mean ± SEM.

2 molecules from PMC10819888, “Benzimidazole-Based Derivatives as Apoptotic Antiproliferative Agents: Design, Synthesis, Docking, and Mechanistic Studies” (Molecules, 2024) can be followed below.

SMILES strings stand for the structures.

As to `O=C(NN=Cc1ccc([N+](=O)[O-])cc1)c1ccc2[nH]c(-c3ccc(Cl)cc3)nc2c1` [Compound 4c, N′-(4-Nitrobenzylidene)-2-(4-chlorophenyl)-1H-benzimidazole-5-carbohydrazide], the “Bcl-2 Conc” value worked out at 0.80 ng/mL and the “down-regulation of anti-apoptotic Bcl-2 protein levels” value is “equipotent down-regulation”.

On to `O=C(NN=Cc1ccc(Cl)cc1)c1ccc2[nH]c(-c3ccc(Cl)cc3)nc2c1` [Compound 4e, N′-(4-Chlorobenzylidene)-2-(4-chlorophenyl)-1H-benzimidazole-5-carbohydrazide], for which the “Bcl-2 Conc” value was determined as 0.75 ng/mL and the “down-regulation of anti-apoptotic Bcl-2 protein levels” value is given as “equipotent down-regulation”. Also, the “Bcl-2 Fold Reduction” value (vs control) is recorded as 4.
